# Legend:
# [1] = recent press reports; cited from earlier work
# [2] = test system: genital herpes (herpes simplex virus (HSV) type No. 2); test: case report: low dose naltrexone in chronic genital herpes; type: in vivo, human
# Description: A person has had genital herpes for 13 years, experiencing a severe painful attack with several lesions for the 4-5 days preceding each menstrual period during most of that time. They were started on low dose naltrexone (1.75 mg per day at bedtime). […] Ten months later the dosage was increased to 2.75 mg/day also taken at bedtime. In the entire period of naltrexone treatment covering a number of months, they have had only two attacks each occurring 2-3 weeks after they ran out of naltrexone and interrupted the treatment temporarily.
# [3] = case report: low dose naltrexone in multiple sclerosis; type: in vivo, human; conditions: person
# Description: This gradually cleared over a two month period. […] This gradually cleared. An attack of transverse myelitis at the lower thoracic level occurred four months later, their third attack in eight months. As they were recovering from this attack, they started on naltrexone, 1.75 mg per day at bedtime. […] This attack involved weakness and numbness of the left arm.
# [4] = test system: Mu and Delta opiate receptor sites; conditions: generally rated; cited from earlier work
SMILES,effectiveness in treating CFS compared with placebo [1],"number of genital herpes attacks in the entire period of naltrexone treatment ([2]; 1.75 then 2.75 mg/day at bedtime, each attack 2-3 weeks after treatment was temporarily interrupted)","effect on genital herpes attacks after start of treatment ([2]; person, 1.75 mg per day at bedtime, oral)","multiple sclerosis attacks after start of naltrexone ([3]; 1.75 mg per day at bedtime, three attacks in eight months before treatment)",multiple sclerosis attacks after resuming naltrexone ([3]; low dose naltrexone resumed after voluntary discontinuation),Mu blocking action relative to Delta blocking action [4]
Nc1nc2c(ncn2COCCO)c(=O)[nH]1 [acyclovir],no more effective than a placebo,–,–,–,–,–
O=C1CC[C@@]2(O)[C@H]3Cc4ccc(O)c5c4[C@@]2(CCN3CC2CC2)[C@H]1O5 [naltrexone],–,two,attacks immediately stopped,"only subsequent attack in the intervening period of many months occurred one year later, three weeks after they voluntarily discontinued naltrexone",no attacks since,about ten
